Results on three molecules are retold here after US12390423B2 (priority 2019, dated 2025).

The subject of experiment [1] is INS-1 (832/13) cells. The experiment in a line: Glucose stimulated insulin secretion (GSIS) in INS-1 (832/13) cells. Format: cell-based, rat. The conditions noted are these: 0.5 mM palmitate 24 h, AvoB 25 μM, ETO 100 μM. The procedure: To measure glucose stimulated insulin secretion (GSIS) in INS-1(832/13) cells a standard protocol was adopted. […] After treatments were complete, cell media was replaced with KRB (Krebs-Ringer Bicarbonate) buffer. Cells were then challenged with 3 mM glucose for 2 h in KRB buffer after which 500 μL KRB buffer was collected and frozen in −80° C. until analysis. For another 2 h, cells were challenged with 16 mM glucose after which 500 μL KRB was collected and frozen in −80° C. until analysis. The amount of insulin released into the KRB buffer was determined by an ELISA kit (Millipore, Rat/Mouse Insulin Detection kit). Data was normalized for cellular protein content, as determined by the Micro-BCA Protein Assay kit. The glucose-dependent insulin secretory index (GSIS16/3), defined as the ratio between the insulin secretion at 16 mM (stimulatory, surrogate to postprandial glucose levels) and 3 mM (basal, surrogate to fasting glucose levels) glucose was also calculated.

For experiment [2], the system named is INS-1 (832/13) cells. As to the kind of experiment: Cytosolic calcium determination (fluo-3AM) in INS-1 (832/13) cells. The conditions noted are these: 0.5 mM palmitate, non-stimulatory glucose, AvoB 25 μM, ETO 100 μM, TMB-8 10 μM. Type of experiment: cell-based, rat. The procedure: INS-1 (832/13) cells were treated as described for the FAO assays but also with metabolic modulators dichloroacetate (DCA) (1 mM) and trimetazidine (25 μM) as well as 10 μM endoplasmic reticulum calcium blocker 8-(N,N-Diethylamino)-octyl-3,4,5-trimethoxybenzoate HCl (TMB-8) (Sigma Aldrich) or 25 nM cyclosporin (Sigma Aldrich) in the presence of 0.5 mM palmitate/1 mM L-carnitine. Cytosolic calcium was measured in INS-1 (832/13) cells using fluo-3AM (Invitrogen, F1241) charged fluorescent dye that accumulates in the cytosol and emits green fluorescence after binding calcium ions. A stock solution of 10 mM fluo-3AM was diluted to 5 μM in fluo-3AM loading buffer (10 mM 4-(2-hydroxyethyl)-1-piperazineethanesulfonic acid (HEPES), 137 mM NaCl, […], 1 mM Na2HPO4, 5 mM glucose, and 0.5 mM MgCl2 (pH 7.4)]. After treatment, cells were incubated in fluo-3AM loading buffer for 30 min at 37° C. with gentle agitation after which cells were washed twice with PBS, trypsinized and collected for flow cytometry analysis. Cytosolic calcium was quantified by taking the mean green fluorescence values of live gated cells and normalizing to vehicle control.

In experiment [3] the test system is C2C12 myotubes. As to the kind of experiment: Cellular ATP content in C2C12 myotubes. Type of experiment: cell-based, mouse. Conditions: 0.5 mM palmitate 24 h, AVO 25 μM, DCA 1 mM, TRI 25 μM. The procedure: Total cellular ATP content was determined using the ATP bioluminescent assay kit (Calbiochem, 119107). Briefly, cells were seeded in white walled 96-well plates (1.2×10^4 cells/well for INS-1 and 2×10^4 cells/well for C2C12) and treated for 24 h (C2C12 cells were differentiated for 5 days prior to treatments whereas INS-1 cells were treated 24 h after seeding). After treatment, culture media was removed, and cells were lysed with nucleotide releasing buffer with gentle shaking for 5 min. ATP monitoring enzyme was then added to cell lysates and plates and luminescence was read in a Biotek Synergy HT spectrophotometer (Biotek; Winooski, VT).

Experiment [4] deals with insulin signaling (pAkt-Ser473), MAPK, AMPK. The experiment in a line: Immunoblotting (pAkt, pERK1/2, pP38, pAMPKα, PGC-1α) and NAO mitochondrial mass in C2C12 myotubes. Type of experiment: cell-based, mouse. The conditions noted are these: 0.5 mM palmitate 24 h, 100 nM insulin 30 min, AvoB 25 μM, DCA 1 mM, TRI 25 μM. How it is done:
For all ROS studies, INS-1 (832/13) cells and C2C12 myotubes were treated with or without palmitate and FAO inhibitors for 24 h in low glucose cell culture media as described for the FAO assay. After treatment, cells were trypsinized and re-suspended in PBS containing 5 μM of the fluorescent dye MitoSOX® (Molecular Probes, Invitrogen) and allowed to incubate for 5-15 minutes in a humidified atmosphere containing 5% CO2 at 37° C. Cells were then washed in PBS, placed in a 96 well plate and fluorescence was measured by flow cytometry. ROS was quantified by normalizing the mean fluorescence values of live gated cells to vehicle control. Mitochondrial membrane potential (MMP) in INS-1 (832/13) and C2C12 myotubes was measured using the cationic fluorescent dye JC-1 (Molecular Probes). JC-1 accumulates in the mitochondrial matrix in an MMP dependent manner. JC-1 fluoresces green in the cytosol where it exists as a monomer, after entering the mitochondria JC-1 monomers form J aggregates and fluoresce red, thus the red/green fluorescence ratio is used to determine MMP. After all treatments, cells were washed, trypsinized and re-suspended in PBS containing 1 μM JC-1 and allowed to incubate for 5-10 minutes in a humidified atmosphere containing 5% CO2 at 37° C. Cells were then washed in PBS, placed in a 96 well plate and fluorescence was measured by flow cytometry. MMP was quantified by normalizing the mean fluorescence values of live gated cells to vehicle control. Mitochondrial mass was measured using 10-N-nonyl acridine orange (NAO; Enzo Life Sciences, ENZ-52306), which accumulates in the mitochondria in an MMP-independent manner where it binds to cardiolipin in the inner mitochondrial membrane. Cells were treated, washed and collected as described and incubated with 0.35 μM NAO and green fluorescence was measured using flow cytometry. In all analysis (ROS, MMP and mitochondrial mass), forward vs side scatter plots were gated to exclude debris (e.g., dead cells), as cell death is associated with increased ROS and altered membrane potentials. For all cell culture experiments, after drug treatments cells were washed with chilled phosphate-buffered saline (PBS), and lysed in chilled lysis buffer with 1× protease inhibitor cocktail (Sigma). RIPA lysis buffer (Sigma-Aldrich) was used for INS-1 (832/13) cells and muscle lysis buffer for C2C12 myotubes (20 mM HEPES, 10 mM NaCl, 1.5 mM MgCl2, 1 mM DTT, 20% glycerol, and 0.1% Triton-X100). Cells were scraped, mechanically homogenized using a syringe and centrifuged at 14,000×g for 20 min at 4° C. and the supernatants were collected. For preparation of all gastrocnemius muscle lysates, 10 mg frozen tissue (wet weight) was washed in chilled PBS, placed in a dounce homogenizer, lysed in muscle lysis buffer and centrifuged at 14,000×g for 20 min at 4° C. and the supernatant was collected. Protein content for cell and tissue lysates was measured using the BCA protein assay kit (ThermoFisher) according to manufacturer's protocol. Thirty μg protein lysates were prepared in loading buffer and immunoblotting was performed by heating lysates for 5 minutes at 95° C. and subjecting them to gel electrophoresis on 10% SDS-polyacrylamide gels at 150 V for 75 minutes. Using a semi-dry transfer apparatus (Bio-Rad) the gels were then transferred at 25V for 45 minutes to a PVDF membrane and blocked with 5% BSA (Sigma) in tris-buffered saline-tween (TBS-T) for 1 hour. […]
(In general: Immunoblotting shows a protein as a band on a membrane.)

Each structure is given as a SMILES string.

On to `CCOC(=O)[C@@]1(CCCCCCOc2ccc(Cl)cc2)CO1` [ETO, etomoxir, reference compound], for which the “Glucose stimulated insulin secretion (GSIS)” value in experiment [1] was “GSIS was higher”. Also, the “Cytosolic Ca2+ (Fluo-3AM)” value in experiment [2] was “able to reduce cytosolic Ca^2+”.

In the case of `CCN(CC)CCCCCCCCOC(=O)c1cc(OC)c(OC)c(OC)c1.Cl` [TMB-8, 8-(N,N-Diethylamino)-octyl-3,4,5-trimethoxybenzoate HCl], the “Cytosolic Ca2+ (Fluo-3AM)” value in experiment [2] is listed as “able to reduce cytosolic Ca^2+”. Turning to `COc1ccc(CN2CCNCC2)c(OC)c1OC` [trimetazidine, reference compound], the “Total cellular ATP content” value in experiment [3] was “did not exert such effects”. The “Insulin signaling (insulin stimulated phosphorylation of AKT Ser473)” value in experiment [4] is listed as “did not exert such effects”.
